The values below come from article PMC5286520 (Scientific Reports, 2017).

In one data set the target is V1aR. On the set-up: method as in earlier work. The note with it: previous studies, ref [32][43], cited from earlier work.
The format of data set [1] is in vitro ADME, human. The note with it: for half-life: 100 μM peptide, read-out: half-life t½ (converted); for degradation in human serum: within 24 h. How it is done: Serum stability was tested as described previously. Briefly, serum was obtained prepared from human blood (self-donor), allowed to coagulate for 2 h at 23 °C and centrifuged at 12,000 × g for 10 min. Peptides (100 μM) were incubated in serum for 2, 4, 6, 8, 10 and 24 h at 37 °C. To evaluate peptide stability, aliquots ([…]) were analysed via RP-HPLC (UltiMate 3000, Thermo Scientific Dionex, Vienna, Austria) on a C18 column (Phenomenex Kinetex, Aschaffenburg, Germany) with a 3% gradient using 0.1% (v/v) TFA and 90/10/0.1% (v/v/v) acetonitrile/H2O/TFA as eluents. Half-life (t1/2) of peptides was calculated using non-linear regression analysis using Graph Pad Prism.
Supplementary Fig. 5. Human serum stability of the inotocin D-analogue. [D-Arg 8 ]-inotocin […]
serum and their stability monitored via HPLC over a time course of 2, 4, 6, 8, 10 and 24 h. Melittin, a haemolytic peptide from the bee venom was used as a positive control f or peptide degradation.
Area under the curves of samples was determined and correlated to the negative control analyte, which was dissolved in 0.1% TFA; thus they were not subject to degradation and were assumed therefore as 100%. Peptide stability was expressed in percentage of peptide remaining.
(1 picture or pasted object on this page, not shown here)

Data set [2] addresses T1, human V2R (Homo sapiens, UniProt P30518).
T1 construct: expressed in transfected cells; host or cells: HEK293 cells, transient (jetPRIME); for the reporter assay co-transfected with pGL4.29 [luc2P/CRE/Hygro]
Kind of data set: Radioligand displacement of [3H] vasopressin, human V2R membranes. It counts as binding. How it is done: (§1) Chinese Hamster Ovary cells (CHO) were cultured in Ham’s F12 media supplemented with 10% fetal bovine serum (FBS), 1% PenStrep (all from Sigma-Aldrich, Munich, Germany) and grown in a humidified atmosphere of 37 °C, 5% CO2 and passaged on average twice per week. CHO cells were used for expression of inotocin receptor (L. niger, T. castaneum). Cell transfections were carried out with 10 μg of plasmid using Lipofectamine LTX (Life Technologies, Invitrogen, Carlsbad, USA) for invertebrate receptors. For the expression of human OTR, V1aR, V1bR and V2R, HEK293 cells were transfected using jetPRIME (Polyplus Transfections, Illkirch-Graffenstaden, France)[35]. Cells were maintained in DMEM (GE Healthcare Hy Clone™, Logan, USA) supplemented with 10% FBS and 1% PenStrep.
Unbound ligands were washed off (Skatron Cell Harvester). […] Bindings of [^3H] AVP and [^3H] […] Bindings of [^3H] inotocin to membranes (10 μg) expressing INTR from L. niger, or [^3H] inotocin to membranes (10 μg) expressing INTR from T. castaneum, respectively, were assayed for displacement with an excess of inotocin (10^−11 to 10^−5 M) (n ≥ 3, except where otherwise stated). […] Specific binding was calculated by subtracting the non-specific binding from the total binding. IC50 values were obtained by fitting the data to a three-parameter logistic Hill equation. Inhibition constants (Ki) were calculated from IC50 using the method by Cheng and Prusoff[65].
A general note: In a radioligand displacement assay an active substance lowers the binding of a labelled ligand.

Data set [3] addresses T2, human OTR (Homo sapiens, UniProt P30559).
T2 construct: expressed in transfected cells; host or cells: HEK293 cells, transient (jetPRIME)
T2 sequence (P30559 1-389): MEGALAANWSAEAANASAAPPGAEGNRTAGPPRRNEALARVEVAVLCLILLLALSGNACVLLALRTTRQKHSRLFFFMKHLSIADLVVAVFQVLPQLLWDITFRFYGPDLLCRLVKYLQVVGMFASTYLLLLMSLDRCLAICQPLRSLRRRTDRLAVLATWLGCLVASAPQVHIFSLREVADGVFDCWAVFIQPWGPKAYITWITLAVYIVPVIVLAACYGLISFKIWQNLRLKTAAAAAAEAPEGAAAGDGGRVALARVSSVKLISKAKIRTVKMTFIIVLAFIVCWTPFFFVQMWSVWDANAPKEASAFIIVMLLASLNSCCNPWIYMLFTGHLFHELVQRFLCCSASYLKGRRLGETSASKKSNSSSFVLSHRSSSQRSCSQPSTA
The data set is described as follows: IP1 accumulation, HEK293 cells expressing human OTR. It counts as cell-based. How it is done:
as §1
(§2) Activation of Gq-signalling via the human V1aR, V1bR and OTR, as well as the insect INTR was measured by inositol-1-phosphate (IP1) quantification using an IP1 Tb kit (Cisbio, Codolet, France). Transfected cells were seeded in 96 well-plates, with a cell density of 10^4 cells per well. Cell culture media was removed from the wells after 6 h and 70 μL of peptide of interest, prepared in IP1 1X Stimulation Buffer at the desired concentrations, was added. Samples were measured in technical triplicates. After 1 h incubation at 37 °C, 15 μL of IP1-d2 was added, following the same volume of Ab-cryptate. […] Activation of Gs-signalling via the human V2R was measured using a luciferase reporter assay. HEK293 transiently expressing V2R were co-transfected with the pGL4.29 [luc2P/CRE/Hygro] (Promega, Mannheim, Germany) plasmid. […] For cell-based functional assays (luciferase and IP1), subtraction of the negative control (stimulation buffer) was applied to all data set. The normalization was performed to the highest value of the positive control from at least 4 independent experiments. Data were fitted using GraphPad Prism 5.0 with an equation for non-linear regression (sigmoidal, slope fit of 1). Values are reported as mean ± SEM. For Schild regression analysis, each concentration-ratio (r) was calculated as the agonist EC50 in the presence of a respective concentration of [D-Arg8]-inotocin by the EC50 of the agonist alone.

The target in data set [4] is T3, human V1aR (Homo sapiens, UniProt P37288). The data set is described as follows: IP1 accumulation, HEK293 cells expressing human V1aR. It counts as cell-based. On the set-up: expressed in transfected cells; host or cells: HEK293 cells, transient (jetPRIME). How it is done:
as §1, §2

Data set [5] deals with T1, human V2R. The data set is described as follows: cell-based. The note with it: luciferase reporter, CRE response element; mean ± SEM; read-out: Potency (EC50). As to the method:
as §1, §2
On the technique in general: Reporter assays use an easily measured gene product as a stand-in for the process of interest.

For data set [6], the target named is T4, human V1bR (Homo sapiens, UniProt P47901).
T4 construct: expressed in transfected cells; host or cells: HEK293 cells, transient (jetPRIME)
T4 sequence (P47901 1-424): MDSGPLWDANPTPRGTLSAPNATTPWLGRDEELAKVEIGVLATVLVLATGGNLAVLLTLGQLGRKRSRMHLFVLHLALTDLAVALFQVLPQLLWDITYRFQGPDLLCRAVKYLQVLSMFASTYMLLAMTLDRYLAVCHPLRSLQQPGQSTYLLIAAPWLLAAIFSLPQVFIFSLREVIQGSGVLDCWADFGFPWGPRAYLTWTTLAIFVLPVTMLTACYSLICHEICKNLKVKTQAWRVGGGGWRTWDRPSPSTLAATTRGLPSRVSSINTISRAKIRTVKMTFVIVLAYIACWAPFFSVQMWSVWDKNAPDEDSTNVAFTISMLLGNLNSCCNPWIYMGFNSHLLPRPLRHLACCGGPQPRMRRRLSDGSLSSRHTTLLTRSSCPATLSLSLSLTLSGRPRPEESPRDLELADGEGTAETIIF
The data set is described as follows: cell-based. As to the method: as §1, §2

Data set [7] has as its target T2, human OTR. The data set is described as follows: Radioligand displacement of [3H] oxytocin, human OTR membranes. It counts as binding. The note with it: read-out: Affinity (Ki). As to the method: as §1
(§3) Unbound ligands were washed off (Skatron Cell Harvester). […] Bindings of [^3H] AVP and [^3H] […] Bindings of [^3H] inotocin to membranes (10 μg) expressing INTR from L. niger, or [^3H] inotocin to membranes (10 μg) expressing INTR from T. castaneum, respectively, were assayed for displacement with an excess of inotocin (10^−11 to 10^−5 M) (n ≥ 3, except where otherwise stated). […] Specific binding was calculated by subtracting the non-specific binding from the total binding. […] Inhibition constants (Ki) were calculated from IC50 using the method by Cheng and Prusoff[65].

The target in data set [8] is T3, human V1aR. The data set is described as follows: cell-based.
The target in data set [9] is T3, human V1aR. The data set is described as follows: Radioligand displacement of [3H] vasopressin, human V1aR membranes. It counts as binding. On the set-up: expressed in transfected cells; host or cells: HEK293 cells, transient (jetPRIME). The following applies: human V1aR over OTR, V1bR and V2R. How it is done:
as §1, §3

Data set [10] concerns the target T4, human V1bR. Kind of data set: Radioligand displacement of [3H] vasopressin, human V1bR membranes. Type of data set: binding.
Text: Unbound ligands were washed off (Skatron Cell Harvester). […] For the displacement at the human OTR, V1aR, V1bR and V2R the normalization to 100% refers on average to 0.49, 1.4, 0.36, 1.1 pmoles of ligand bound per milligram of membrane for human OTR, V1aR, V1bR and V2R, respectively. […] For the displacement at the insect receptors the normalization to 100% refers on average to 0.65 and 0.69 pmoles of ligand bound per milligram of membrane for inotocin receptor from L. niger and T. castaneum, respectively. Bindings of [^3H] inotocin to membranes (10 μg) expressing INTR from L. niger, or [^3H] inotocin to membranes (10 μg) expressing INTR from T. castaneum, respectively, were assayed for displacement with an excess of inotocin (10^−11 to 10^−5 M) (n ≥ 3, except where otherwise stated). […] Specific binding was calculated by subtracting the non-specific binding from the total binding. IC50 values were obtained by fitting the data to a three-parameter logistic Hill equation. Inhibition constants (Ki) were calculated from IC50 using the method by Cheng and Prusoff[65].
Where [11] appears, read: Affinity (Ki), displacement of [3H] vasopressin, mean ± SEM.
Setting [12] is: IP1 accumulation, mean ± SEM, read-out: Potency (EC50).

As a reminder, the half-life is the time needed for the level to fall by half in the phase considered. As usually defined, the EC50 is the concentration giving half of the maximal effect.

Where two headings read alike, the source gives them in different places. Bridge positions count the residues as written; N and C are the ends. Square brackets hold non-standard residues; d marks the D form. Peptide text beside a SMILES is read from it.

T1 sequence (P30518 whole entry): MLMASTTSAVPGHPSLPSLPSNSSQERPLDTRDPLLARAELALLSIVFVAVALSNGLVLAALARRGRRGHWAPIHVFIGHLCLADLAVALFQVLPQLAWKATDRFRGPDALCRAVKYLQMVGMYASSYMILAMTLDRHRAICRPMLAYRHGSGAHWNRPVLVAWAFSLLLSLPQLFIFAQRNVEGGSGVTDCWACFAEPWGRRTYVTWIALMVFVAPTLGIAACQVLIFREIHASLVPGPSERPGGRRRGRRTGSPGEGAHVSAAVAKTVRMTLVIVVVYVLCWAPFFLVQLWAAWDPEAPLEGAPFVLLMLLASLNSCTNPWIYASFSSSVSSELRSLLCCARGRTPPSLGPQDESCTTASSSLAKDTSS
T3 sequence (P37288 whole entry): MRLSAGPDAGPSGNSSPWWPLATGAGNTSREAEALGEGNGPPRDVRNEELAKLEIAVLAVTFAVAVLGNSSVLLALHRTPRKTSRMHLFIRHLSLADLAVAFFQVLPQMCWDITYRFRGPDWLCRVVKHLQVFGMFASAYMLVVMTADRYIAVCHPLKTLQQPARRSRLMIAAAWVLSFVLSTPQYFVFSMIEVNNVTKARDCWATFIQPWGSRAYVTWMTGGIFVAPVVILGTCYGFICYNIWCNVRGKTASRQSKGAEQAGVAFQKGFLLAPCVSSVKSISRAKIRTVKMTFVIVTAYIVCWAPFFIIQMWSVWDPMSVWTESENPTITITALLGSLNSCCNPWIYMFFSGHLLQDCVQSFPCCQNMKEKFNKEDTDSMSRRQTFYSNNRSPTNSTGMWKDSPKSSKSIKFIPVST

In the case of [D-Arg8]-vasopressin, at V1aR (read-out: binding affinity), the Ki is 0.781 µM. Besides, the “difference in affinity of peptide pair vasopressin/[D-Arg8]-vasopressin” value in the data set on V1aR is ~ 200 fold.
On to `CC[C@H](C)[C@H](NC(=O)CN)C(=O)NCC(=O)N[C@@H](C)C(=O)N[C@H](C(=O)N[C@@H](CC(C)C)C(=O)N[C@@H](CCCCN)C(=O)N[C@H](C(=O)N[C@@H](CC(C)C)C(=O)N[C@H](C(=O)N[C@H](C(=O)NCC(=O)N[C@@H](CC(C)C)C(=O)N1CCC[C@H]1C(=O)N[C@@H](C)C(=O)N[C@@H](CC(C)C)C(=O)N[C@H](C(=O)N[C@@H](CO)C(=O)N[C@@H](Cc1c[nH]c2ccccc12)C(=O)N[C@H](C(=O)N[C@@H](CCCCN)C(=O)N[C@@H](CCCNC(=N)N)C(=O)N[C@@H](CCCCN)C(=O)N[C@@H](CCCNC(=N)N)C(=O)N[C@@H](CCC(N)=O)C(=O)N[C@@H](CCC(N)=O)C(N)=O)[C@@H](C)CC)[C@@H](C)CC)[C@@H](C)O)[C@@H](C)O)C(C)C)C(C)C` [melittin], for which the half-life in data set [1] (human serum, 37 °C) is 42 min. Besides, the “degradation in human serum” value in data set [1] is on record as “fully degraded”.
On to `NC(=O)CC[C@@H]1NC(=O)[C@H](Cc2ccccc2)NC(=O)[C@H](Cc2ccc(O)cc2)NC(=O)[C@@H](N)CSSC[C@@H](C(=O)N2CCC[C@H]2C(=O)N[C@@H](CCCN=C(N)N)C(=O)NCC(N)=O)NC(=O)[C@H](CC(N)=O)NC1=O` [vasopressin, arginine-vasopressin], for which the half-life in [1] (human serum, 37 °C) was 60 min. Besides, the “degradation in human serum” value in [1] was “fully degraded”.
For `CC[C@H](C)[C@@H]1NC(=O)[C@H](CC(C)C)NC(=O)[C@@H](N)CSSC[C@@H](C(=O)N2CCC[C@H]2C(=O)N[C@H](CCCNC(=N)N)C(=O)NCC(N)=O)NC(=O)[C@H](CC(N)=O)NC(=O)[C@H]([C@@H](C)O)NC1=O` [[D-Arg8]-inotocin] (H-CLITNCP[dR]G-NH2; disulfide 1-6), the Ki at human V2R [2] (setting [11]) was above 100 µM; at human V2R [2] (Ki, no significant displacement, human V2 receptor) it was above 4 µM; at human OTR [7], above 4 µM; on human V1bR [10] (setting [11]), above 100 µM; at human V1bR [10] (Ki, no significant displacement, human V1b receptor) it was above 4 µM. Besides, the EC50 at human OTR [3] (setting [12]) is above 100 µM; on human OTR [3] (IP1 response, human OTR, read-out: EC50) it was above 10 µM; at human V1aR [4] (setting [12]), above 100 µM; at human V1aR [4] (IP1 response, human V1aR, read-out: EC50), above 10 µM; at human V2R [5] it was 0.164 ± 0.026 µM; on human V1bR [6] (setting [12]), above 100 µM. The EC50 at human V1bR [6] (IP1 response, human V1bR, read-out: EC50) was above 10 µM. Further, the remaining at 24 h in data set [1] (human serum, 37 °C, 24 h, read-out: peptide still present after 24 h) is above 70%. Also, the Kb on human V1aR [8] was 0.0158 µM. In addition, the binding selectivity on human V1aR [9] was 3,000 fold.
